Where a name gives a salt, the structure may show the parent alone.
Conditions: [M+H-H2O]+; instrument: TW; calibrated with polyalanine and drug standards

| collision cross section (N2) [Å²] | Structure (SMILES) |
| --- | --- |
| 173 | COc1ccc2c(c1)OC1(O)COc3cc(OC)c(OC)cc3C1=C2 (stereo unspecified) [12a-HYDROXY-5-DEOXYDEHYDROMUNDUSERONE] |

Same assay, conditions: [M+H]+; instrument: TW; calibrated with polyalanine and drug standards

| collision cross section (N2) [Å²] | Structure (SMILES) |
| --- | --- |
| 182 | COc1ccc(-c2cc(=O)c3c(O)cc(OC)c(OC)c3o2)c(OC)c1 [5-HYDROXY-2',4',7,8-TETRAMETHOXYFLAVONE] |
| 160.3 | COc1ccc(-c2coc3cc(OC)ccc3c2=O)cc1 [7,4'-DIMETHOXYISOFLAVONE] |
| 158.6 | Cn1c(=O)c2[nH]c(C3CCCC3)nc2n(C)c1=O [8-CYCLOPENTYLTHEOPHYLLINE] |
| 208.8 | COC(=O)C[C@H]1C(C)(C)C2(O)OC34CC2C(=O)[C@]1(C)C3CC[C@]1(C)C4=CC(=O)O[C@H]1c1ccoc1 (stereo partly drawn) [8beta-HYDROXYCARAPIN, 3,8-HEMIACETAL] |
| 187 | CC[C@@]1(O)C(=O)OCc2c1cc1n(c2=O)Cc2cc3cc(O)ccc3nc2-1 [10-HYDROXYCAMPTOTHECIN] |
| 184.8 | COc1ccc(-c2cc(=O)c3c(OC(C)=O)cc(OC(C)=O)cc3o2)cc1 [ACACETIN DIACETATE] |
| 171.2 | CC(=O)Nc1ccc(S(=O)(=O)c2ccc(NC(C)=O)cc2)cc1 [ACEDAPSONE] |
| 178.2 | CC(=O)c1ccc(S(=O)(=O)NC(=O)NC2CCCCC2)cc1 [ACETOHEXAMIDE] |
| 152.3 | CC(=O)N[C@@H](Cc1c[nH]c2ccccc12)C(=O)O [ACETYLTRYPTOPHAN] |
| 146.5 | Nc1nc(=O)c2ncn(COCCO)c2[nH]1 [ACYCLOVIR] |
| 167.6 | Nc1ncnc2c1ncn2[C@@H]1O[C@H](COP(=O)(O)O)[C@@H](O)[C@H]1O [ADENOSINE PHOSPHATE] |
| 152.5 | CC(C)C[C@H](NC(=O)[C@H](C)N)C(=O)O [ALANYL-dl-LEUCINE] |
| 139 | Nc1cc(-c2ccncc2)c[nH]c1=O [AMRINONE] |
| 143.1 | COc1ccc2c(=O)c(CC(=O)O)coc2c1 [ANHYDROBRAZILIC ACID] |
| 229.3 | O=c1cc(-c2ccc(O)cc2)oc2cc(O[C@@H]3O[C@H](CO)[C@@H](O)[C@H](O)[C@H]3O[C@@H]3OC[C@](O)(CO)[C@H]3O)cc(O)c12 [APIIN] |
| 203.5 | O=C1CCc2ccc(OCCCCN3CCN(c4cccc(Cl)c4Cl)CC3)cc2N1 [ARIPIPRAZOLE] |
| 204.8 | CCCCCCCCCCCCCCCC(=O)OC[C@H](O)[C@H]1OC(=O)C(O)=C1O [ASCORBYL PALMITATE] |
| 167.6 | COC(=O)[C@H](Cc1ccccc1)NC(=O)[C@@H](N)CC(=O)O [ASPARTAME] |
| 158.3 | CC(C)=CCC/C(C)=C/COc1ccc2ccc(=O)oc2c1 [AURAPTENE] |
| 181.2 | COc1ccc(C(=O)CC(=O)c2ccc(C(C)(C)C)cc2)cc1 [AVOBENZONE] |
| 180 | O=C(CCCN1CCN(c2ccccn2)CC1)c1ccc(F)cc1 [AZAPERONE] |
| 155.1 | Cn1cnc([N+](=O)[O-])c1Sc1ncnc2nc[nH]c12 [AZATHIOPRINE] |
| 153.8 | O=c1cc(-c2ccccc2)oc2cc(O)c(O)c(O)c12 [BAICALEIN] |
| 142.3 | O=C(CCCl)NCc1ccccc1 [BECLAMIDE] |
| 188.6 | NS(=O)(=O)c1cc2c(cc1C(F)(F)F)NC(Cc1ccccc1)NS2(=O)=O (stereo unspecified) [BENDROFLUMETHIAZIDE] |
| 153.8 | O=C(Oc1cccc2cccnc12)c1ccccc1 [BENZOXIQUINE] |
| 184.8 | c1ccc(-c2ccc(C(c3ccccc3)n3ccnc3)cc2)cc1 (stereo unspecified) [BIFONAZOLE] |
| 171.1 | O=C(/C=C/C(=O)Oc1ccccc1C(=O)O)Oc1ccccc1C(=O)O [BISSALICYL FUMARATE] |
| 159.9 | O=C1C=CC2=C3c4cc(O)c(O)cc4CC3(O)COC2=C1 (stereo unspecified) [BRAZILEIN] |

The next lines start with the compound.

| Structure (SMILES) | collision cross section (N2) [Å²] |
| --- | --- |
| COc1cc(OC)cc(OC)c1 [1,3,5-TRIMETHOXYBENZENE] | 130.6 |
| CC1(C)C2CC(=O)[C@]3(C)C(CC[C@@]4(C)[C@H](c5ccoc5)OC(=O)C5OC543)[C@@]2(C)[C@@H](O)C[C@H]1O (stereo partly specified) [1,3-DIDEACETYL-7-DEACETOXY-7-OXOKHIVORIN] | 200.2 |
| COc1cc(O)c(C(=O)/C=C/c2ccc(OC)c(O)c2)c(OC)c1 [2',3-DIHYDROXY-4,4',6'-TRIMETHOXYCHALCONE] | 177.1 |
| COc1ccc(/C=C/C(=O)c2ccc(O)cc2O)cc1 [2',4'-DIHYDROXY-4-METHOXYCHALCONE] | 162.2 |
| O=C(/C=C/c1ccccc1)c1ccc(O[C@@H]2O[C@H](CO)[C@@H](O)[C@H](O)[C@H]2O)cc1O [2',4'-DIHYDROXYCHALCONE 4'-GLUCOSIDE] | 200.6 |
| O=C(/C=C/c1ccc(O)cc1)c1ccccc1O [2',4-DIHYDROXYCHALCONE] | 153 |
| COc1ccc(/C=C/C(=O)c2cc(O)ccc2O)cc1 [2',5'-DIHYDROXY-4-METHOXYCHALCONE] | 162.1 |
| COc1ccc(-c2coc3cc(O)ccc3c2=O)c(OC)c1 [2'-METHOXYFORMONETIN] | 164.6 |
| COc1ccc(C(=O)c2ccc(O)cc2)c(O)c1O [2,3,4'-TRIHYDROXY-4-METHOXYBENZOPHENONE] | 152.9 |
| CCOc1ccc(C(=O)c2ccc(O)c(O)c2O)cc1 [2,3,4-TRIHYDROXY-4'-ETHOXYBENZOPHENONE] | 160.4 |
| COc1cc(O)c(C)c(O)c1 [2,6-DIHYDROXY-4-METHOXYTOLUENE] | 127.1 |
| COc1cc(OC)c2c(=O)c(-c3ccccc3)c(C)oc2c1OC [2-METHYL-5,7,8-TRIMETHOXYISOFLAVONE] | 173.6 |
| COc1ccc(-c2oc3cc(OC)c(OC)c(OC)c3c(=O)c2OC)cc1 [3,4',5,6,7-PENTAMETHOXYFLAVONE] | 181.9 |
| COc1ccc(-c2oc3ccccc3c(=O)c2OC)cc1 [3,4'-DIMETHOXYFLAVONE] | 159.1 |
| COc1ccc2oc(-c3ccccc3)c(OC)c(=O)c2c1 [3,6-DIMETHOXYFLAVONE] | 159.9 |
| CC(=O)O[C@H]1C[C@@H](O)C(C)(C)C2C[C@@H](OC(C)=O)[C@]3(C)C(CC[C@@]4(C)[C@H](c5ccoc5)OC(=O)C5OC543)[C@]21C (stereo partly specified) [3-DEACETYLKHIVORIN] | 215.9 |

| Structure (SMILES) | collision cross section (N2) [Å²] |
| --- | --- |
| CC(=O)O[C@H]1CC[C@@]2(C)C(C[C@@H](OC(C)=O)[C@@]3(C)C4=CC(=O)O[C@@H](c5ccoc5)[C@]4(C)CCC23)C1(C)C (stereo partly drawn) [3-DEOXO-3beta-ACETOXYDEOXYDIHYDROGEDUNIN] | 219.7 |
| C=C1[C@H]2CC[C@@]3(C)[C@H](c4ccoc4)OC(=O)C[C@]13O[C@H]1C[C@H](O)C(C)(C)[C@H](CC(=O)OC)[C@]12C [3-DEOXY-3beta-HYDROXYANGOLENSIC ACID METHYL ESTER] | 204.1 |
| COc1cccc(O)c1O [3-METHOXYCATECHOL] | 124.7 |
| CC1(C)CC23C(=O)CCC(O)C2(C)CCC13 (stereo unspecified) [3-NOR-3-OXOPANASINSAN-6-OL] | 146.1 |
| S=c1ccss1 [3H-1,2-DITHIOLE-3-THIONE] | 120.4 |
| CC(=O)O[C@@H]1CC[C@@]2(C)C(C[C@@H](OC(C)=O)[C@@]3(C)C4=CC(=O)O[C@@H](c5ccoc5)[C@]4(C)CCC23)C1(C)C (stereo partly drawn) [3alpha-ACETOXYDIHYDRODEOXYGEDUNIN] | 218 |
| CC(=O)O[C@H]1CC[C@@]2(C)C(C[C@@H](OC(C)=O)[C@]3(C)C2CC[C@@]2(C)[C@H](c4ccoc4)OC(=O)[C@H]4O[C@]423)C1(C)C (stereo partly drawn) [3beta-ACETOXYDEOXODIHYDROGEDUNIN] | 219.2 |
| CC(=O)O[C@@H]1CC2C(C)(CC[C@H](O)C2(C)C)C2CC[C@]3(C)C(=CC(=O)O[C@H]3c3ccoc3)C21C (stereo partly drawn) [3beta-HYDROXYDEOXODIHYDRODEOXYGEDUNIN] | 207.1 |
| COc1ccc(C(=O)/C=C/c2ccccc2)cc1 [4'-METHOXYCHALCONE] | 153.8 |
| Cc1c(O)c(=O)n(-c2ccccc2)n1C [4-HYDROXYANTIPYRINE] | 141.4 |
| CC(=O)OC1CN2CCC1CC2 (stereo unspecified) [ACECLIDINE] | 136.2 |
| NCCCNCCSP(=O)(O)O [AMIFOSTINE] | 146.9 |
| CN1C2C[C@H](OC(=O)[C@H](CO)c3ccccc3)C[C@H]1[C@@H](O)C2 [ANISODAMINE HYDROBROMIDE] | 171.1 |
| c1cc2c(cc1[C@H]1OC[C@H]3[C@@H]1CO[C@H]3c1ccc3c(c1)OCO3)OCO2 [ASARININ (-)] | 171 |
| CN1CCc2cc3c(cc2[C@H]1[C@@H]1OC(=O)c2c1ccc1c2OCO1)OCO3 [BICUCULLINE (+)] | 180 |

Same assay, conditions: [M+Na]+; instrument: TW; calibrated with polyalanine and drug standards

| collision cross section (N2) [Å²] | Structure (SMILES) |
| --- | --- |
| 183.3 | CC(C)CC(NC(=O)OCC1c2ccccc2-c2ccccc21)C(=O)O (stereo in doubt) [N- (9-FLUORENYLMETHOXYCARBONYL)-L-LEUCINE] |
| 202.8 | COC(=O)C[C@H]1C(C)(C)[C@@H](O)[C@@H]2CC3=C4CC(O)O[C@@H](c5ccoc5)[C@]4(C)CCC3[C@@]1(C)C2=O (stereo partly drawn) [3,16-DIDEOXYMEXICANOLIDE-3beta-DIOL] |
| 184 | C#CCCCCCCCCCCCC(O)CC(O)COC(C)=O (stereo unspecified) [AVOCADYNE ACETATE] |
| 202.8 | CCCCCCCCCCCCCCCCCCOCC(O)CO (stereo unspecified) [BATYL ALCOHOL] |

Same assay, conditions: [M]+; instrument: TW; calibrated with polyalanine and drug standards

| collision cross section (N2) [Å²] | Structure (SMILES) |
| --- | --- |
| 162.3 | C[N+](C)(CCOc1ccccc1)Cc1ccccc1 [BEPHENIUM] |

From the C3SDB collision cross section collection
